Laboratory results as given in US7709002B1, “Mutated ras peptides for generation of CD8+Cytotoxic T lymphocytes” (The United States of America as represented by the …, priority 1996, dated 2010).
Where two headings read alike, the source gives them in different places. Where no end group is shown, it is not given here.

Experiments:
human HLA-A2 = target: T1, human HLA-A2 (Homo sapiens, UniProt P04439, D140Y/D185E/D98H/E176V/E277Q/G131W/G231S/I119V/I121R/I166T/I218V/L300P/L318F/N151K/N90K/P208A/P217A/Q86G/Q94H/R138H/R169H/T345S); experiment: HLA-A2 binding bioassay on T2 cells (flow cytometry); conditions: for Immunostaining of T2 cells with Isotype control MAb: no peptide = 84.0
T1 construct: The 174CEM.T2 cell line (“T2”), (transport deletion mutant); endogenous in cells; host or cells: 174CEM.T2 (T2) human cell line

[1] = tested on: T2 cell line as target of CD8+ CTL line of RAS patient 32; experiment: 51Cr-release cytotoxicity of CD8+ CTL line of RAS patient 32 against peptide-pulsed T2 targets; type: cell-based, human; conditions: peptide 10 μg/ml, IVS cycle 7 (FIG. 5)
Experimental: FIG. 5. Cytolytic activity by CD8^+ CTL line of RAS patient 32 is peptide-specific. The CD8^+ CTL line of RAS patient 32 (see FIG. 3) was assayed against the T2 cell line as a target, incubated with and without different ras peptides (10 μg/ml), as shown. In parallel, the extent of NK activity was evaluated against K562 cells. Cytotoxicity was determined by ^51Cr-release, and the results expressed at different E/T ratios following IVS cycle 7. Similar results were observed using the second, independently-derived CD8^+ CTL line as described in Table 6.
(§1) IVS cycles for evaluation of CD8^+ T cell responses from HLA-A2+Patients. Freshly-thawed PBMC (from ras patients 32 and 33), derived pre-vaccination and post-third vaccination, were enriched in T lymphocytes by passage over nylon wool columns (Robbins Scientific, Sunnyvale, Calif.) and then depleted of CD4^+ T cells by negative selection via panning on anti-CD4 MAb-coated T25 flasks (Applied Immune Sciences, Santa Clara, Calif.). For the first IVS cycle, CD8^+ enriched lymphocytes (5×10^5/well) were cultured in 24-well plates with irradiated, autologous PBMC (5×10^6/well) as APC which had been preincubated for 3 hours with the appropriate mutant ras peptide ([…]) plus human β2-microglobulin (10 μg/ml) (Calbiochem, San Diego, Calif.). […] IL-2 (10 U/ml) was added 3 days later. After an additional 7 days, viable cells (2-5×10^5/well) were re-cultured by weekly stimulation with APC pre-pulsed with peptide/β2-microglobulin, and IL-2 added one day later. After the third or fourth IVS cycle, autologous PBMC were replaced with EBV-transformed, autologous BLCL (5×10^5/well) as APC. […] CTL activity was evaluated from cultures 5 to 6 days after Ag restimulation.
Cytotoxic response. Cytotoxicity was examined by a conventional ^51Cr-release assay, as described (6). Briefly, target cells (i.e. T2, C1R-A2, BLCL, K562) were radiolabeled with 200 μCi of Na2[^51Cr]04 (Amersham) for 60 minutes at 37° C., followed by thorough washing to remove unincorporated isotope. Effectors and targets (1×10^4/well) were incubated in 96-well, U-bottomed plates (Costar) at various effector target (E/T) ratios in the absence and presence of peptide (+/−monoclonal antibody (MAb) directed against CD4, CD8 or HLA-A2 molecules (clone BB7.2 from ATCC)) for up to 6 hours. After incubation, supernatants were collected using a Supernatant Collection System (Skatron, Sterling, Va.) and radioactivity measured in a γ-counter (Packard Instruments, Downers Grove, Ill.). Cytotoxic activity was defined as percent specific release of ^51Cr and determined by the equation: [(experimentalcpm−spontaneouscpm)/maximumcpm−spontaneouscpm)]×100. Results were expressed as the mean±SEM of triplicate cultures. […]

[2] = tested on: C1R-A2 targets / autologous EBV-B cells as targets of CD8+ CTL line of patient 29; experiment: 51Cr-release cytotoxicity of CD8+ CTL line of patient 29 against C1R-A2 or autologous EBV-B targets; type: cell-based, human; conditions: autologous EBV-B targets, IVS cycle 11, effector/target ratio 10/1 (FIG. 9B)
Experimental: FIGS. 9A and 9B. Production of a peptide-specific CD8^+ T cell line from post-vaccinated lymphocytes of patient 29. FIG. 9A: A CD8^+ CTL line was established from post-vaccinated PBMC of patient 29 and assayed for peptide specificity against C1R-A2 targets. Cytotoxicity was determined by ^51Cr-release, and the results expressed at different effector/target ratios following IVS cycle 7. FIG. 9B: Using this CD8^+ CTL line, the requirement for HLA-A2 in peptide presentation (by autologous EBV-B cells as targets) was determined in blocking experiments using MAb (clone BB7.2; ascites=1:30 dilution) directed against that molecule (or using an isotype-matched MAb). […] CD4 and CD8 MAbs were as described for FIGS. 8A and 8b. Control lysis in the absence of peptide or in the presence of ras5-14(Gly12) was <3%.
(§2) Cytotoxic response. Cytotoxicity was examined by a conventional ^51Cr-release assay, as described (6). […] After incubation, supernatants were collected using a Supernatant Collection System (Skatron, Sterling, Va.) and radioactivity measured in a γ-counter (Packard Instruments, Downers Grove, Ill.). Cytotoxic activity was defined as percent specific release of ^51Cr and determined by the equation: [(experimentalcpm−spontaneouscpm)/maximumcpm−spontaneouscpm)]×100. Results were expressed as the mean±SEM of triplicate cultures. […]

[3] = tested on: C1R-A2 cell line as target of CD8+ CTL line of RAS patient 32; experiment: 51Cr-release cytotoxicity of CD8+ CTL line of RAS patient 32 against peptide-pulsed C1R-A2 targets; type: cell-based, human; conditions: for % Specific Lysis: E/T 20/1, 6 hr
Source text: as §1
(§3) Cytotoxic response. Cytotoxicity was examined by a conventional ^51Cr-release assay, as described (6). Briefly, target cells (i.e. T2, C1R-A2, BLCL, K562) were radiolabeled with 200 μCi of Na2[^51Cr]04 (Amersham) for 60 minutes at 37° C., followed by thorough washing to remove unincorporated isotope. Effectors and targets (1×10^4/well) were incubated in 96-well, U-bottomed plates (Costar) at various effector target (E/T) ratios in the absence and presence of peptide (+/−monoclonal antibody (MAb) directed against CD4, CD8 or HLA-A2 molecules (clone BB7.2 from ATCC)) for up to 6 hours. After incubation, supernatants were collected using a Supernatant Collection System (Skatron, Sterling, Va.) and radioactivity measured in a γ-counter (Packard Instruments, Downers Grove, Ill.). Cytotoxic activity was defined as percent specific release of ^51Cr and determined by the equation: [(experimentalcpm−spontaneouscpm)/maximumcpm−spontaneouscpm)]×100. Results were expressed as the mean±SEM of triplicate cultures. The C1R-A2 line is a BLCL transfected with the HLA-A2 gene (obtained from Dr. P. Creswell, Yale University) (Storkus et al, 1987 J. Immunol. 138:1657-1659), and K562 is an erythroleukemia cell line (ATCC, Rockville, Md.) used to measure NK activity.

[4] = tested on: peptide-pulsed autologous EBV-B cells; type: cell-based, human
Experimental: as §3

[5] = tested on: SW480 colon carcinoma cell line (HLA-A2+, rasVal12+); experiment: 51Cr-release cytotoxicity of CTL against SW480 colon carcinoma cells; type: cell-based, human; conditions: IFN-γ 250 U/ml for 24 hr; no lysis without pretreatment (FIG. 10A)
Experimental: (§4) FIGS. 10A and 10B. Anti-ras Val12-specific CTL from patient 29 lyse SW480 tumor targets in the absence of exogenous peptide. FIG. 10A: Anti-ras Val12-specific CD8^+ CTL from patient 29 were assayed against the SW480 colon carcinoma cell line (HLA-A2^+, rasVal12+) in the absence of exogenous peptide, with or without IFN-γ pretreatment (250 U/ml for 24 hr) of the target cells. CD8^+ CTL reactive with the […] peptide were used as an irrelevant effector cell population. Cytotoxicity was determined by ^51Cr-release, and the results expressed at different effector/target ratios. FIG. 10B: In parallel to 10A, anti-ras or anti-MART-1-specific CTL were assayed against SW480 (±IFN-γ pretreatment) at an effector/target ratio of 10/1 in the absence or presence of exogenous peptide (5 μg/ml). […] Flow cytometric analysis of SW480 cells for expression of HLA-A2: untreated=65.4% with MFI of 29.8; IFN-γ-pretreated=99.5% with MFI of 349.6. Flow cytometric analysis of SW480 cells for expression of ICAM-1: untreated=16.0% with MFI of 30.3; IFN-γ-pretreated=98.6% with MFI of 181.9.
as §2
Studies were also carried out to determine whether such peptide-induced CD8^+ CTL could recognize a processed form of the corresponding mutant ras protein. […] In contrast to the CD4^+ analysis, which measured lymphoproliferation to soluble protein, the CD8^+ CTL analysis reflected lytic ability against SW480 cells harboring the naturally-occurring mutation in the absence of exogenously added peptide. […]

SW480 cells = experiment: Flow cytometric analysis of SW480 cells for HLA-A2 and ICAM-1 after IFN-γ pretreatment; type: cell-based, human
Experimental: as §4
Isolation and preparation of peripheral blood mononuclear cells (PBMC). PBMC were isolated from 50 ml of heparinized whole blood by Ficoll-Hypaque density gradient centrifugation (Lymphocyte Separation Medium; Organon-Teknika, Durham, N.C.) prior to the first vaccination and four weeks after each vaccination. After isolation at each interval, PBMC were cryopreserved under liquid nitrogen in a sterile cocktail of 90% heat-inactivated, pooled human AB serum (Valley Biomedical, Winchester, Va.) and 10% dimethyl sulfoxide (DMSO) (Sigma Chemical Co., St. Louis, Mo.). Basic cellular immune responses to mitogens and antigens were first determined using freshly-thawed, unfractionated PBMC, derived pre-vaccination and post-third vaccination. For all functional assays and cell culture preparation, PBMC were suspended in a RPMI-1640 based-medium, supplemented with 15 mM HEPES buffer (pH 7.4), 2 mM L-glutamine, 0.1 mM non-essential amino acids, 1 mM sodium pyruvate, 50 μM β-mercaptoethanol, 50 μg/ml gentamicin (all from GIBCO/BRL, Gaithersburg, Md.) and 10% heat-inactivated human AB serum (Valley Biomedical). Cell surface phenotype of resting and activated lymphocyte cultures was analyzed by direct immunofluorescence. Cells were treated with the appropriate primary monoclonal antibody (MAb) conjugated to fluorescein isothiocyanate (FITC) (from Pharmingen, San Diego, Calif. or Becton Dickinson, Mountain View, Calif.), fixed with 1% paraformaldehyde and evaluated by flow cytometry using a FACScan (Becton Dickinson) for the percentage of positive cells and mean fluorescent intensity (MFI).

[6] = peptide 50 μg/ml + β2-microglobulin 3 μg/ml, overnight 37° C., serum-free
[7] = Post-Immune CD8+ culture, IVS cycle 6, 10-mer peptide 10 μg/ml
[8] = Post-Immune CD8+ culture, IVS cycle 7, 10-mer peptide 10 μg/ml
[9] = Post-Immune CD8+ culture, IVS cycle 8, 10-mer peptide 10 μg/ml
[10] = Post-Immune CD8+ culture, IVS cycle 9, 10-mer peptide 10 μg/ml
[11] = Pre-Immune CD8+ culture, IVS cycle 6, 10-mer peptide 10 μg/ml
[12] = Pre-Immune CD8+ culture, IVS cycle 7, 10-mer peptide 10 μg/ml

ras5-14(Gly12): wild-type ras 10-mer peptide positions 5-14 with Gly at position 12 (KLVVVGAGGV)
Immunostaining of T2 cells with Isotype control MAb (human HLA-A2; [6]): 41.3 MFI | Sensitization of T2 targets for lysis (in words) [1]: failed to stimulate lysis | Control lysis [2]: < 3% | Control lysis ([3]; IVS cycle 16, effector/target ratio 10/1 (FIG. 7)): < 3% | % Specific Lysis [3, 7]: 8 ± 0% | % Specific Lysis [3, 8]: 8 ± 1% | % Specific Lysis [3, 9]: 10 ± 1% | % Specific Lysis [3, 10]: 21 ± 2% | % Specific Lysis [3, 11]: 10 ± 1% | % Specific Lysis [3, 12]: 0%

CC(C)C[C@H](NC(=O)[C@@H](N)CCCCN)C(=O)N[C@H](C(=O)N[C@H](C(=O)N[C@H](C(=O)NCC(=O)N[C@@H](C)C(=O)N[C@@H](CS)C(=O)NCC(=O)N[C@H](C(=O)NCC(=O)N[C@@H](CCCCN)C(=O)N[C@@H](CO)C(=O)O)C(C)C)C(C)C)C(C)C)C(C)C [ras5-17(Cys12)]
Specific cytotoxic response of CD4+ T cell line ([4]; CD4+ T cell line of patient 43): no specific cytotoxic response was detected

Lys-Leu-Val-Val-Val-Gly-Ala-Asp-Gly-Val [ras5-14(Asp12)]
Sensitization of T2 targets for lysis (in words) [1]: sensitized the T2 cell line for lysis | % Specific Lysis [3, 7]: 24 ± 2% | % Specific Lysis [3, 8]: 26 ± 2% | % Specific Lysis [3, 9]: 67 ± 2% | % Specific Lysis [3, 10]: 68 ± 4% | % Specific Lysis [3, 11]: 14 ± 0% | % Specific Lysis [3, 12]: 0%

CC(C)C[C@H](NC(=O)[C@@H](N)CCCCN)C(=O)N[C@H](C(=O)N[C@H](C(=O)N[C@H](C(=O)NCC(=O)N[C@@H](C)C(=O)N[C@H](C(=O)NCC(=O)N[C@H](C(=O)NCC(=O)N[C@@H](CCCCN)C(=O)N[C@@H](CO)C(=O)O)C(C)C)C(C)C)C(C)C)C(C)C)C(C)C [ras5-17(Val12)]
Specific cytotoxic response of CD4+ T cell line ([4]; CD4+ T cell line of patient 29): did not display specific cytotoxicity

CEA571-579: 9 amino acid peptide, HLA-A2-restricted CEA-specific CD8+ CTL epitope, positive control for HLA-A2 binding (CGIQNSVSA; UniProt P06731 571-579, looked up, fragment)
Immunostaining of T2 cells with Isotype control MAb (human HLA-A2; [6]): 48.4 MFI | Immunostaining of T2 cells with MAb against HLA-A2 (human HLA-A2; peptide 50 μg/ml + β2-microglobulin 3 μg/ml, overnight 37° C., serum-free, no peptide = 137.9): 679.5 MFI | Immunostaining of T2 cells with Pan Class I MAb (W6/32) (human HLA-A2; peptide 50 μg/ml + β2-microglobulin 3 μg/ml, overnight 37° C., serum-free, no peptide = 230.4): 991.2 MFI

YLVVVGADGV [Tyr variant]
Binding activity to HLA-A2 on T2 cells relative to native ras5-14(Asp12) sequence (human HLA-A2; less dependency for exogenous β2-macroglobulin): higher binding activity than did the native peptide sequence | Shift in dose-response of target sensitization for lysis vs native peptide, based on half-maximal activity ([3]; anti-ras5-14(Asp12) CTL line, E/T 10/1 (FIG. 11)): three-fold

IFN-γ: interferon gamma used to pretreat SW480 target cells
Lysis of SW480 by anti-rasVal12 CTL after pretreatment of targets, no exogenous peptide [5]: demonstrable cytotoxicity was observed at multiple effector/target ratios | SW480 cells positive for HLA-A2 (SW480 cells; IFN-γ-pretreated (250 U/ml, 24 hr), untreated 65.4%): 99.5% | SW480 cells positive for ICAM-1 (SW480 cells; IFN-γ-pretreated, untreated 16.0%): 98.6% | HLA-A2 expression on SW480 (SW480 cells; IFN-γ-pretreated, untreated 29.8): 349.6 MFI | ICAM-1 expression on SW480 (SW480 cells; IFN-γ-pretreated, untreated 30.3): 181.9 MFI
